In paper PMC5522996, “Big conductance calcium‐activated potassium channel openers control spasticity without sedation” (British Journal of Pharmacology, 2017):

Assays:
rats = assay: 28 day toxicology in rats (100, 300, 1000mg/kg p.o.); assay type: in vivo, rat
Experimental: Twenty‐eight day toxicology in rats and dogs for Investigational New Drug filing was performed by Charles Rivers (UK). Reproductive toxicology in rabbits was performed by Charles Rivers (Canada). Pharmacokinetic and/or toxicological doses ranged from 5 to 1000 mg·kg^−1 p.o. in Sprague Dawley male and female rats (n = 6‐26 per group), 50–200 mg·kg^−1 p.o. in male and female Beagle dogs (n = 6 per group) and 100–750 mg·kg^−1 p.o. in female New Zealand white rabbits (n = 9 per group). Results are expressed as mean ± SD.
Tissue Analysed Result of Tissue Analysis in Rats Result of Tissue Analysis in Dogs Artery, Aorta Negative Negative
Bone Marrow femur Negative Negative
Bone Marrow sternum Negative Negative
Bone, Sternum Negative Negative
Epididymus Negative Negative
Adrenal Gland Negative Negative
Mammary Grand Negative Negative
Parathyroid Gland Negative Negative
Pituitary Gland Negative Negative
Prostate Gland Negative Negative
Salivary Gland Negative Negative
Seminal Vesicle Gland Negative Negative
Gut associated lymphoid Negative Negative
Large Intestine caecum Negative Negative
Large Intestine colon Negative Negative
Large Intestine rectum Negative Negative
Mandibular Lymph Node Negative Negative
Mesenteric Lymph Node Negative Negative
Skeletal Muscle Negative Negative
Nasal Cavity Negative Negative
Sciatic Nerve Negative Negative
Oesophagus Negative Negative
Pancreas Negative Negative
Small Intestine, duodenum Negative Negative
Small Intestine, Ileum Negative Negative […]
Following 28 day toxicology of feeding either: rats treated with 100mg/kg, 300mg/kg, 1000mg/kg p.o. (n-20/group) or dogs treated with 50mg/kg, 100mg/kg or 200mg/kg p.o. (n=6/group). […] Studies were performed by Charles Rivers, Ltd. However, * There was hypertrophy of the liver that was evident at high doses VSN16R was associated with liver weight (mean ± SD) increases: 11.0 ± 1.2g placebo, 11.6 ± 1.3g (300mg/kg p.o.), 16.7 ± 2.1g (1000mg/kg p.o. P<0.001 assessed using Students t test. n= 10 female rats/group) associated with liver enzyme induction, supporting enhanced VSN16R clearance in pharmacokinetic studies. […]

Water solubility = assay type: physicochemical
WP2uvvA = assay: Bacterial reverse mutation, revertants per plate; assay type: cell-based, Escherichia coli
Experimental: Strain of Organism Treatment Dose Revertants per plate
First Mutation without Metabolic Stimulation
Second Mutation without Metabolic Stimulation
VSN16R was incubated at various concentrations with either TA1535, TA1537, TA98 and TA100 strains of Salmonella typhimurium, which carry mutations in genes involved in histidine synthesis, and WP2uvvA Escherichia coli. The bacteria are spread on agar plates with limiting histidine content and incubated for 48 h. The number of histidine gene negative to positive revertants was assessed in two experiments. The results represent the mean ± SD. n=3/group. This was performed by Charles

A1 = biological target: T1, A1 (Homo sapiens, UniProt P30542); assay: Receptor binding profile of VSN16R; conditions: 10µM VSN16R
T1 construct: purchased Cerep; Chantest; DiscoveRx; Multispan; MDS Pharma Services

α2(non-selective) = assay: Receptor binding profile of VSN16R; design: species or system human; conditions: 10µM VSN16R
β2 = assay: Receptor binding profile of VSN16R; design: species or system human; conditions: 10µM VSN16R
D2S = biological target: T2, D2S (Homo sapiens, UniProt P14416); assay: Receptor binding profile of VSN16R; conditions: 10µM VSN16R
T2 construct: purchased Cerep; Chantest; DiscoveRx; Multispan; MDS Pharma Services

ETA = biological target: T3, ETA (Homo sapiens, UniProt P25101); assay: Receptor binding profile of VSN16R; conditions: 10µM VSN16R
T3 construct: purchased Cerep; Chantest; DiscoveRx; Multispan; MDS Pharma Services

CXCR2 = biological target: T4, CXCR2 (Homo sapiens, UniProt P25025); assay: Receptor binding profile of VSN16R; conditions: 10µM VSN16R
T4 construct: purchased Cerep; Chantest; DiscoveRx; Multispan; MDS Pharma Services

MC4 = biological target: T5, MC4 (Homo sapiens, UniProt P32245); assay: Receptor binding profile of VSN16R; conditions: 10µM VSN16R
T5 construct: purchased Cerep; Chantest; DiscoveRx; Multispan; MDS Pharma Services

sst(non-selective) = assay: Receptor binding profile of VSN16R; design: species or system human; conditions: 10µM VSN16R
Na+ channel (site 2) = assay: Receptor binding profile of VSN16R; design: species or system human; conditions: 10µM VSN16R
Cl- channel = assay: Receptor binding profile of VSN16R; design: species or system human; conditions: 10µM VSN16R
NE transporter = biological target: T6, NE transporter (Homo sapiens, UniProt P23975); assay: Receptor binding profile of VSN16R; conditions: 10µM VSN16R
T6 construct: purchased Cerep; Chantest; DiscoveRx; Multispan; MDS Pharma Services

GPR23 = biological target: T7, GPR23 (Homo sapiens, UniProt Q99677); assay: Receptor binding profile of VSN16R; conditions: 10µM VSN16R
T7 construct: purchased Cerep; Chantest; DiscoveRx; Multispan; MDS Pharma Services

GABAA = assay: Receptor binding profile of VSN16R; design: species or system human; conditions: 10µM VSN16R
CYP450 1A2 = CYP450 1A2 (Homo sapiens, UniProt P05177); assay: CYP450 inhibition of substrate binding
Chain of CYP450 1A2 (P05177 whole entry): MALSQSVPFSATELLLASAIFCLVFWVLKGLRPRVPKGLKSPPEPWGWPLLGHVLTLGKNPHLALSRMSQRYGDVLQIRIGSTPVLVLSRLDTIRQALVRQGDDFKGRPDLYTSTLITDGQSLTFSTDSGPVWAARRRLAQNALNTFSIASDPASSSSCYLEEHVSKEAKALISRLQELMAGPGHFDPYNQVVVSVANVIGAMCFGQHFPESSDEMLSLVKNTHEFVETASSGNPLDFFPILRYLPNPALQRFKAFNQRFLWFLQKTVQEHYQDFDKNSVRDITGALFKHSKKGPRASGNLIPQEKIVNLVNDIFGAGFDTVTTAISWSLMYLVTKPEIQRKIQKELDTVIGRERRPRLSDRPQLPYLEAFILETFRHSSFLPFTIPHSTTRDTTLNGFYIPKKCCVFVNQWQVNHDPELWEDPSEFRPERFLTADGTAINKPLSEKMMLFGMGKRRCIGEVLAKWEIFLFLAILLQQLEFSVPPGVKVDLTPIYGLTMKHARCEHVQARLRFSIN
From the text: IC50 Inhibition of substrate binding
Inhibition of binding of either 3-cyano-7-ethoxycoumarin, dibenzylfluorescein or 7-benzyoxy-4-
(trifluoromethyl) coumarin in human enzyme transfected BTI NN-5B1-4 cells or Sf9 insect cells or
inhibition of dextromethorphan substrate to CYP450 2D6 in liver microsomes.

T3 sequence (P25101 21-427): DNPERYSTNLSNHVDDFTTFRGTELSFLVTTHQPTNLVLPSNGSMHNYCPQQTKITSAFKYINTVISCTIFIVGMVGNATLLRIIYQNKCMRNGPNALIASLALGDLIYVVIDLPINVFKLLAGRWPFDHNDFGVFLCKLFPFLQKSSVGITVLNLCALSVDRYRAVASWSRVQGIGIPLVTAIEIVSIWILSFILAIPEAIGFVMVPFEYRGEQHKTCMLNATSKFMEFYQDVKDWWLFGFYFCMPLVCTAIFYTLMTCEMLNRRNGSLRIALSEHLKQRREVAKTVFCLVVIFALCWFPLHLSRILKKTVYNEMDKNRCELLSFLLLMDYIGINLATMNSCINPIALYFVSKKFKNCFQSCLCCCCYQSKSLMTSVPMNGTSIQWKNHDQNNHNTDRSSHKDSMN
T5 sequence (P32245 whole entry): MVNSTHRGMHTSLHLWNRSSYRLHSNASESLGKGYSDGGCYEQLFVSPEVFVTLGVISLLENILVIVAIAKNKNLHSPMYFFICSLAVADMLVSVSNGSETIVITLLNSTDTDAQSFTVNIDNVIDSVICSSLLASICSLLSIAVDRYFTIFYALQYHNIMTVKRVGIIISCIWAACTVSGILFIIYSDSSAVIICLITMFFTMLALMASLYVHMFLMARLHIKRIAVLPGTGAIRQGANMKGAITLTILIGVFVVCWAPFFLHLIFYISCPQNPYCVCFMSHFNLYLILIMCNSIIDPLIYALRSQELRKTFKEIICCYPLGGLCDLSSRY
T6 sequence (P23975 whole entry): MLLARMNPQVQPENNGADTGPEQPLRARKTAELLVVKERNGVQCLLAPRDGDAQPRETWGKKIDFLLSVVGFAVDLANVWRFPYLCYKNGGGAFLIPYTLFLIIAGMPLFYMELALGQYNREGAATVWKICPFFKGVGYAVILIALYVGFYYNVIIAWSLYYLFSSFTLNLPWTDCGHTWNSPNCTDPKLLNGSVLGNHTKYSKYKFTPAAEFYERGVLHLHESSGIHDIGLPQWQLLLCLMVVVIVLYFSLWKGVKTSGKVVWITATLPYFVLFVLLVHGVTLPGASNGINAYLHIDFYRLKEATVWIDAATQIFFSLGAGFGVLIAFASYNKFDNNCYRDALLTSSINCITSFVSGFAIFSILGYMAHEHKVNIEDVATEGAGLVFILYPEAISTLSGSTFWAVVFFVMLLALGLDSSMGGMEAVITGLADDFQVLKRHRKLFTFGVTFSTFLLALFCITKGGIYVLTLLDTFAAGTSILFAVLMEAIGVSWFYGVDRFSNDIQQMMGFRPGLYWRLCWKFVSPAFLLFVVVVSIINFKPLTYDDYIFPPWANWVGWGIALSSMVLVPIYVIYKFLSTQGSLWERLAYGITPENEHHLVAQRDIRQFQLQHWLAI
T2 sequence (P14416 1-414 isoform P14416-2): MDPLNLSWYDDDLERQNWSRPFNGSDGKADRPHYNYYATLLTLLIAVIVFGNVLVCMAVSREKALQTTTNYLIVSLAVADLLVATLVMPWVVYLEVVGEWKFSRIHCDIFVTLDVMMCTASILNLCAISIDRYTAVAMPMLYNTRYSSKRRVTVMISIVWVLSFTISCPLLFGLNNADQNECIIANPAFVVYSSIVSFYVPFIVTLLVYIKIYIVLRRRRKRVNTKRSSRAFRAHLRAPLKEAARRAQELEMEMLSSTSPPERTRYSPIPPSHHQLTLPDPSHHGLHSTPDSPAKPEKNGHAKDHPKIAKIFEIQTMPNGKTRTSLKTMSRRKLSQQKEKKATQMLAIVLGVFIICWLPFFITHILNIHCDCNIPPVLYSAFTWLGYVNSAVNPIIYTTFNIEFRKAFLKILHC
T1 sequence (P30542 whole entry): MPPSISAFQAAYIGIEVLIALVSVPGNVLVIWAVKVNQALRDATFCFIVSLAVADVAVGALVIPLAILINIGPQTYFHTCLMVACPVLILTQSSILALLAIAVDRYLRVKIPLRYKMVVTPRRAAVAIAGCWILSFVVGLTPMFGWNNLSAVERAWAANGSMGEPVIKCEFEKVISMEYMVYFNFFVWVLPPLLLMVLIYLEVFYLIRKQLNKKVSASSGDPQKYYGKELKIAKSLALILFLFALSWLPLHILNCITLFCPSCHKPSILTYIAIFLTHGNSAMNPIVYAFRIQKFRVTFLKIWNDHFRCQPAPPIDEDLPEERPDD
T4 sequence (P25025 whole entry): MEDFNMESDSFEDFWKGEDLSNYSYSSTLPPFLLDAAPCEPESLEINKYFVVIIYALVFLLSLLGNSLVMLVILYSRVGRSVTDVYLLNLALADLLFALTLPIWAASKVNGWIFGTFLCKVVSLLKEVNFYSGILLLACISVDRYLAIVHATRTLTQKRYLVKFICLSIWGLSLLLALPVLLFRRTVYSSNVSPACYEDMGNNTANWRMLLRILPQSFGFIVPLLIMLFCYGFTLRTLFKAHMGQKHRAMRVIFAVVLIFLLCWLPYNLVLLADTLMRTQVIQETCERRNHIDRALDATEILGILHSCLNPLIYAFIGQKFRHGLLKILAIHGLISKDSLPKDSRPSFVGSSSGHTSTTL
T7 sequence (Q99677 whole entry): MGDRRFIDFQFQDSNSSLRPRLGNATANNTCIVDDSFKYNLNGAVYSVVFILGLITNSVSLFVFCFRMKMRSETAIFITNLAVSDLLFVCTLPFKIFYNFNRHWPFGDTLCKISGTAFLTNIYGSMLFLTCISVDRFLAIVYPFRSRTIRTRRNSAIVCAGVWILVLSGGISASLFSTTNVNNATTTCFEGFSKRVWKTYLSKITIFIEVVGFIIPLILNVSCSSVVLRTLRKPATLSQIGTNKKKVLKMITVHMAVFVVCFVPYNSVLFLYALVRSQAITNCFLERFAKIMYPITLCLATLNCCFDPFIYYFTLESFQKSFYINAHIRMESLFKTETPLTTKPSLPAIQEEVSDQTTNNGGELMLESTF

In the case of `C[C@H](CO)NC(=O)c1cccc(/C=C\CCCC(=O)N(C)C)c1` [VSN16R], the “Histological analysis of animal tissues” value (rats; both, Sprague Dawley (rat), rat, in vivo, 28 days) is reported as “essentially no significant microscopic findings attributable to VSN16R”, the NOEL (rats; p.o., rats over 28 days) is reported as 1000 mg/kg and the Clinical signs (rats; rat, in vivo) is reported as “occasional salivation and ‘ploughing’ behaviours”. For the same compound, the solubility (Water solubility) was over 30 mg/mL, the Revertants per plate (WP2uvvA; First Mutation without Metabolic Stimulation, 17µg) was 5.3 ± 0.6 and the Revertants per plate (WP2uvvA; First Mutation without Metabolic Stimulation, 5000µg) was 1.3 ± 1.2. The Revertants per plate (WP2uvvA; Second Mutation without Metabolic Stimulation, 17µg) was 10.3 ± 6.7, the Revertants per plate (WP2uvvA; Second Mutation without Metabolic Stimulation, 5000µg) was 8.0 ± 4.6 and the Activity (A1) was “Negligible Activity”. For the same compound, the Activity (α2(non-selective)) was “Negligible Activity”, the Activity (β2) was “Negligible Activity” and the Activity (D2S) was “Negligible Activity”. For the same compound, the Activity (ETA) was “Negligible Activity”, the Activity (CXCR2) was “Negligible Activity” and the Activity (MC4) was “Negligible Activity”. The Activity (sst(non-selective)) was “Negligible Activity”, the Activity (Na+ channel (site 2)) was “Negligible Activity” and the Activity (Cl- channel) was “Negligible Activity”. For the same compound, the Activity (NE transporter) was “Negligible Activity”, the Activity (GPR23) was “Negligible Activity” and the Activity (GABAA) was “Negligible Activity”. For the same compound, the IC50 (CYP450 1A2) was over 10 µM.
